Results taken from patent US9006221B2, “Method of modulating ship activity” (H. Lee Moffitt Cancer Center and Reserach Institute, Inc., priority 2008, dated 2015).

Target: T1, SHIP1 (Mus musculus, UniProt Q9ES52)
T1 construct: The asterisk in lanes 1 and 3 indicates the ˜145 kD full-length SHIP protein; His tag (C); made in house; host or cells: E. coli Rosetta-Gami 2 (DE3) pLys
T1 sequence (Q9ES52 1-1191): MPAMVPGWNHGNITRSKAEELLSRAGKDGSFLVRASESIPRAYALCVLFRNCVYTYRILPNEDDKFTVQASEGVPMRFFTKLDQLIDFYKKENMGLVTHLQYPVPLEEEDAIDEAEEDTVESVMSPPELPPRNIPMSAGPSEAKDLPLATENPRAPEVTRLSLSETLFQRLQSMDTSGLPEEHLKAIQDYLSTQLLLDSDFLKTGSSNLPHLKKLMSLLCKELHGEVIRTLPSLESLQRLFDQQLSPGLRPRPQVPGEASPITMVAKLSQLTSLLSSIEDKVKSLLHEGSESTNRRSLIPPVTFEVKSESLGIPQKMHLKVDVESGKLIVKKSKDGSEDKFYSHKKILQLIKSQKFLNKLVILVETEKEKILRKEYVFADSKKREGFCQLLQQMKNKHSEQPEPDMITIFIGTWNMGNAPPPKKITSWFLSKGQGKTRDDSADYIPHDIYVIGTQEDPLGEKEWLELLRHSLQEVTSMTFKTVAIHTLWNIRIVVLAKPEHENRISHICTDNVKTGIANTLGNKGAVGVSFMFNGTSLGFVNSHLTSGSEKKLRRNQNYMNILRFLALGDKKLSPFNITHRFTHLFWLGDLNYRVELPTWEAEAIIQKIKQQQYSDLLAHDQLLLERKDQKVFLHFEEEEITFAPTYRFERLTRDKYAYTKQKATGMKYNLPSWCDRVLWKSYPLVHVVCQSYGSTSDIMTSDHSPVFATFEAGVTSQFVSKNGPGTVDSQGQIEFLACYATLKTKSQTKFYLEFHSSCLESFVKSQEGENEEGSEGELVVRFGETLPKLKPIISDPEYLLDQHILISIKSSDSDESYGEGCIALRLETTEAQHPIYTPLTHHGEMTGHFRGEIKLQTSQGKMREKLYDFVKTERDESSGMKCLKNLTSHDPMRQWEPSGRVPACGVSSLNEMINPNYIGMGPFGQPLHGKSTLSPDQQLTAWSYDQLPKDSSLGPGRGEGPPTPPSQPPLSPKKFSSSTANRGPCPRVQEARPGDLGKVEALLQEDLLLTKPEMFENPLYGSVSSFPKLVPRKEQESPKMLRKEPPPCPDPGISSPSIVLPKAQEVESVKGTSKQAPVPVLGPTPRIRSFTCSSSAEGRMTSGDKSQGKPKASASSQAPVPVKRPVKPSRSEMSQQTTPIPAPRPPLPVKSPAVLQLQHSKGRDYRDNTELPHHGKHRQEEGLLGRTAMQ
Experiment: Fluorescence polarization (FP) assay of SHIP1 enzymatic activity
Assay type: biochemical
Conditions: for SHIP inhibitory activity in FP assay: confirmatory FP assay of screening hits
Excerpt: SHIP is detectable in this expression system as a ˜145 kD protein (FIG. 1a, lane 1). Because of an in-frame Histidine (His) tag on the COOH terminus of SHIP, it can then be purified from E. coli lysates by FPLC over a Ni-containing resin. (FIG. 1a, lane 3). Purified SHIP was routinely obtained in sufficient quantities, using this E. coli expression system and FPLC purification, to conduct high-throughput screening (HTS) of chemical libraries for compounds that inhibit SHIP activity. However, prior to screening, a fluorescence polarization (FP) assay that detects SHIP activity in either a 96- or […] format, seen in FIG. 1b, screen was established. SHIP generates PI(3,4)P2 from its PI(3,4,5)P3 substrate. In the FP assay enzymatic generation of PI(3,4)P2 by SHIP reduces polarized fluorescence (mP) because the fluorescent PI(3,4)P2 “probe” is displaced from a detector protein that binds specifically to PI(3,4)P2. The FP assay is highly specific for SHIP activity in these lysates. No significant 5′-inositol phosphatase activity was detected in E. coli lysates harboring an ‘empty’ pet24b expression vector insert when FPLC fractions where SHIP typically elutes with the imidazole step gradient are analyzed in the FP assay (FIG. 1c).
After preparing purified SHIP and establishing the FP assay, two different chemical libraries, comprising a total of ˜2100 different chemical compounds, were screened. Seventeen compounds capable of inhibiting SHIP activity at μM concentrations were identified in this screen. The compounds were verified for SHIP activity inhibition by repeating the FP assay with the compounds obtained from their respective wells in the replicates of the masterplates for these libraries FIGS. 2-6).
A fluorescence polarization (FP) assay to detect and quantify SHIP2 activity has been previously described [Drees B E, et al., Comb Chem High Throughput Screen (2003) 6(4):321-330], but no assay has been described for the detection of SHIP1. A fluorescence polarization (FP) assay was developed to detect the activity of recombinant SHIP1 (see FIGS. 15a and b) and the FP assay was utilized as a rapid screen to detect compounds in chemical libraries that have inhibitory activity against SHIP1. This screen identified 3α-aminocholestane as a potent inhibitor of SHIP1 enzymatic activity (FIG. 15c). […] This high degree of selectivity could be important, since loss of PTEN function promotes malignancy in parenchymal and hematopoietic tissues. [Yuan T L & Cantley L C Oncogene (2008) 27(41):5497-5510; Zhang J, et al., Nature (2006) 441(7092):518-522; Yilmaz O H, et al., Nature (2006) 441(7092):475-482]
Assay of SHIP1 enzymatic activity: A fluorescent polarization (FP) assay that detects the 5′-inositol phosphatase activity of SHIP1 was developed based on a previously established protocol [Drees B E, et al., Comb Chem High Throughput Screen (2003) 6(4):321-330] and was obtained from Echelon Biosciences (Salt Lake City, USA). Modifications of the protocol included the application of SHIP1 in the assay and an increase in the concentration of MgCl2 to […] to maximize the activity of SHIP1 in this assay. Each enzymatic reaction was performed in a 96 well working plate and added in the following order and concentration: Recombinant SHIP1 (0.1 μg) in PBS+20 mM MgCl2, 100 μM of each individual compound from the NCI Diversity Set and then PI(3,4,5)P3 substrate diluted 1:10 in H2O. The enzymatic reaction was incubated for 30 min at room temperature. The detector, reaction mixture and probe were then combined according to the SHIP2 protocol. Malachite Green Phosphatase Assay Kit was obtained from Echelon Biosciences (Salt Lake City, USA). Assays for SHIP2 were performed according to the manufacturer's protocol. The concentration of SHIP1 and SHIP2 per reaction mixture was […]. PTEN was used at the concentration recommended by the manufacturer.

OC(c1cc(-c2ccccc2)nc2c1ccc1ccccc12)C1CCCCN1 (stereo not drawn) [NSC13480, (2-phenylbenzo[h]quinolin-4-yl)-piperidin-2-ylmethanol]
SHIP inhibitory activity in FP assay: inhibit both SHIP1 and SHIP2 enzymatic activity
SHIP inhibitory activity in FP assay (listed as NSC 13480): SHIP inhibitory activity

CC(C)CCC[C@@H](C)[C@H]1CC[C@H]2[C@@H]3CC[C@H]4C[C@H](N)CC[C@]4(C)[C@H]3CC[C@]12C [NSC23922, (3R,5S,8R,9S,10S,13R,14S,17R)-10,13-dimethyl-17-[(2R)-6-methylheptan-2-yl]-2,3,4,5,6,7,8,9,11,12,14,15,16,17-tetradecahydro-1H-cyclopenta[a]phenanthren-3-amine]
concentration with detectable inhibitory activity against SHIP1 (0.1 μg of recombinant SHIP1, FP assay): 2 µM
inhibition of SHIP1 activity (at 100 μM in the FP assay): inhibits SHIP1 activity
SHIP inhibitory activity in FP assay: inhibit both SHIP1 and SHIP2 enzymatic activity
SHIP inhibitory activity in FP assay (listed as NSC 23922): SHIP inhibitory activity
